This note sets out measurements from patent US20160271263A1 (Novo Nordisk A/S, priority 2010, published 2016).

One may read the EC50 as the concentration giving half of the maximal effect. Read a high EC50 as a need for much substance.

SMILES strings stand for the structures. Numbered stars: 1 amine (or outer) side, 2 acyl side, 3 side chain; on linkers, the order of the positions; unused ones are H or OH. Side chains are listed from the residue outwards. Peptide text beside a SMILES is read from it. * marks the point of attachment. C18 diacid = O=C(O)CCCCCCCCCCCCCCCCC(=O)*; γGlu = O=C(O)[C@H](CCC(=O)[*:2])N[*:1]; AEEA = NCCOCCOCC(=O)O

The target in this assay is glucagon receptor (Homo sapiens, UniProt P47871). The experiment in a line: cell-based.
Sequence of glucagon receptor (P47871 26-477): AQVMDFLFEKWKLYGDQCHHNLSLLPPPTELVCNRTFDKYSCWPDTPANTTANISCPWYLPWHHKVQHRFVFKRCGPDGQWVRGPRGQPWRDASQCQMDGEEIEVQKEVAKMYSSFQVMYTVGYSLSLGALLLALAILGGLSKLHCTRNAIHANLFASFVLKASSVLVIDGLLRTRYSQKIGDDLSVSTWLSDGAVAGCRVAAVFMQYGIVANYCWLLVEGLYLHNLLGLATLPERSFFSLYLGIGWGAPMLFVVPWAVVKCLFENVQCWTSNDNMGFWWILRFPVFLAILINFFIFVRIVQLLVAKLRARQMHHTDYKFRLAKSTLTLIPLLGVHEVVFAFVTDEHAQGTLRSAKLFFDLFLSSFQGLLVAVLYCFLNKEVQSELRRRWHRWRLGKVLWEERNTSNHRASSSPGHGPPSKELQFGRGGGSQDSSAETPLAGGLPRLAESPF
Description: The cells (14000 per well) were incubated (37° C., 5% CO2) overnight in 384-well plates. Next day the cells were loaded with a calcium responsive dye that only distributed into the cytoplasm. Probenecid, an inhibitor of the organic anion transporter, was added to prevent the dye from leaving the cell. A PDE inhibitor was added to prevent formatted cAMP from being degraded. […] End point data were collected after 6 minutes. An increase in intracellular cAMP was proportional to an increased in calcium concentrations in the cytoplasm. […] EC50-values were calculated in Prism5.
`CC(C)C[C@H](NC(=O)[C@H](Cc1ccc(O)cc1)NC(=O)[C@H](CCCCN)NC(=O)[C@H](CO)NC(=O)[C@H](Cc1ccc(O)cc1)NC(=O)[C@H](CC(=O)O)NC(=O)[C@H](CO)NC(=O)[C@@H](NC(=O)[C@H](Cc1ccccc1)NC(=O)[C@@H](NC(=O)CNC(=O)[C@H](CCC(N)=O)NC(=O)[C@H](CO)NC(=O)[C@@H](N)Cc1c[nH]cn1)[C@@H](C)O)[C@@H](C)O)C(=O)N[C@@H](CC(=O)O)C(=O)N[C@@H](CO)C(=O)N[C@@H](CCCNC(=N)N)C(=O)N[C@@H](CCCNC(=N)N)C(=O)N[C@@H](C)C(=O)N[C@@H](CCC(N)=O)C(=O)N[C@@H](CC(=O)O)C(=O)N[C@@H](Cc1ccccc1)C(=O)N[C@H](C(=O)N[C@@H](CCCCNC(=O)COCCOCCNC(=O)COCCOCCNC(=O)CC[C@H](NC(=O)CCCCCCCCCCCCCCCCC(=O)O)C(=O)O)C(=O)N[C@@H](Cc1c[nH]c2ccccc12)C(=O)N[C@@H](CC(C)C)C(=O)N[C@@H](CC(C)C)C(=O)N[C@H](C(=O)N[C@H](C(=O)O)[C@@H](C)O)[C@@H](C)O)C(C)C` [Example 15] displayed a concentration for a half-maximal effect (EC50) of 0.024 nM. Compound `CC(C)C[C@H](NC(=O)[C@H](Cc1ccc(O)cc1)NC(=O)[C@H](CCCCN)NC(=O)[C@H](CO)NC(=O)[C@H](Cc1ccc(O)cc1)NC(=O)[C@H](CC(=O)O)NC(=O)[C@H](CO)NC(=O)[C@@H](NC(=O)[C@H](Cc1ccccc1)NC(=O)[C@@H](NC(=O)CNC(=O)[C@H](CCC(N)=O)NC(=O)[C@H](CO)NC(=O)[C@@H](N)Cc1c[nH]cn1)[C@@H](C)O)[C@@H](C)O)C(=O)N[C@@H](CC(=O)O)C(=O)N[C@@H](CCCCNC(=O)COCCOCCNC(=O)COCCOCCNC(=O)CC[C@H](NC(=O)CCCCCCCCCCCCCCCCC(=O)O)C(=O)O)C(=O)N[C@@H](CCCNC(=N)N)C(=O)N[C@@H](CCCNC(=N)N)C(=O)N[C@@H](C)C(=O)N[C@@H](CCC(N)=O)C(=O)N[C@@H](CC(=O)O)C(=O)N[C@@H](Cc1ccccc1)C(=O)N[C@H](C(=O)N[C@@H](CCC(N)=O)C(=O)N[C@@H](Cc1c[nH]c2ccccc12)C(=O)N[C@@H](CC(C)C)C(=O)N[C@@H](CC(C)C)C(=O)N[C@@H](CC(N)=O)C(=O)N[C@H](C(=O)O)[C@@H](C)O)C(C)C` [Example 17] (H-HSQGTFTSDYSKYLDK([AEEA-AEEA-γGlu-C18 diacid])RRAQDFVQWLLNT-OH; N-terminus and C-terminus assumed) gave a concentration for a half-maximal effect (EC50) of 0.003 nM. `CC(C)C[C@H](NC(=O)[C@H](Cc1ccc(O)cc1)NC(=O)[C@H](CCCCN)NC(=O)[C@H](CO)NC(=O)[C@H](Cc1ccc(O)cc1)NC(=O)[C@H](CC(=O)O)NC(=O)[C@H](CO)NC(=O)[C@@H](NC(=O)[C@H](Cc1ccccc1)NC(=O)[C@@H](NC(=O)CNC(=O)[C@H](CCC(N)=O)NC(=O)[C@H](CO)NC(=O)[C@@H](N)Cc1c[nH]cn1)[C@@H](C)O)[C@@H](C)O)C(=O)N[C@@H](CC(=O)O)C(=O)N[C@@H](CO)C(=O)N[C@@H](CCCNC(=N)N)C(=O)N[C@@H](CCCCNC(=O)COCCOCCNC(=O)COCCOCCNC(=O)CC[C@H](NC(=O)CCCCCCCCCCCCCCCCC(=O)O)C(=O)O)C(=O)N[C@@H](C)C(=O)N[C@@H](CCC(N)=O)C(=O)N[C@@H](CC(=O)O)C(=O)N[C@@H](Cc1ccccc1)C(=O)N[C@H](C(=O)N[C@@H](CCC(N)=O)C(=O)N[C@@H](Cc1c[nH]c2ccccc12)C(=O)N[C@@H](CC(C)C)C(=O)N[C@@H](CC(C)C)C(=O)N[C@@H](CC(N)=O)C(=O)N[C@H](C(=O)O)[C@@H](C)O)C(C)C` [Example 18] (H-HSQGTFTSDYSKYLDSRK([AEEA-AEEA-γGlu-C18 diacid])AQDFVQWLLNT-OH; N-terminus and C-terminus assumed) had an EC50 of 0.206 nM. `CC(C)C[C@H](NC(=O)[C@H](Cc1ccc(O)cc1)NC(=O)[C@H](CCCCN)NC(=O)[C@H](CO)NC(=O)[C@H](Cc1ccc(O)cc1)NC(=O)[C@H](CC(=O)O)NC(=O)[C@H](CO)NC(=O)[C@@H](NC(=O)[C@H](Cc1ccccc1)NC(=O)[C@@H](NC(=O)CNC(=O)[C@H](CCC(N)=O)NC(=O)[C@H](CO)NC(=O)[C@@H](N)Cc1c[nH]cn1)[C@@H](C)O)[C@@H](C)O)C(=O)N[C@@H](CC(=O)O)C(=O)N[C@@H](CO)C(=O)N[C@@H](CCCCNC(=O)COCCOCCNC(=O)COCCOCCNC(=O)CC[C@H](NC(=O)CCCCCCCCCCCCCCCCC(=O)O)C(=O)O)C(=O)N[C@@H](CCCNC(=N)N)C(=O)N[C@@H](C)C(=O)N[C@@H](CCC(N)=O)C(=O)N[C@@H](CC(=O)O)C(=O)N[C@@H](Cc1ccccc1)C(=O)N[C@H](C(=O)N[C@@H](CCC(N)=O)C(=O)N[C@@H](Cc1c[nH]c2ccccc12)C(=O)N[C@@H](CC(C)C)C(=O)N[C@@H](CC(C)C)C(=O)N[C@@H](CC(N)=O)C(=O)N[C@H](C(=O)O)[C@@H](C)O)C(C)C` [Example 19] yielded a concentration for a half-maximal effect (EC50) of 0.094 nM. `CSCC[C@H](NC(=O)[C@H](CC(C)C)NC(=O)[C@H](Cc1c[nH]c2ccccc12)NC(=O)[C@H](CCC(N)=O)NC(=O)[C@@H](NC(=O)[C@H](Cc1ccccc1)NC(=O)[C@H](CC(=O)O)NC(=O)[C@H](CCCCNC(=O)COCCOCCNC(=O)CC[C@H](NC(=O)CCCCCCCCCCCCCCCCC(=O)O)C(=O)O)NC(=O)[C@H](C)NC(=O)[C@H](CCCNC(=N)N)NC(=O)[C@H](CCCNC(=N)N)NC(=O)[C@H](CO)NC(=O)[C@H](CC(=O)O)NC(=O)[C@H](CC(C)C)NC(=O)[C@H](Cc1ccc(O)cc1)NC(=O)[C@H](CCCCN)NC(=O)[C@H](CO)NC(=O)[C@H](Cc1ccc(O)cc1)NC(=O)[C@H](CC(=O)O)NC(=O)[C@H](CO)NC(=O)[C@@H](NC(=O)[C@H](Cc1ccccc1)NC(=O)[C@@H](NC(=O)CNC(=O)[C@H](CCC(N)=O)NC(=O)[C@@H](CO)NC(=O)[C@@H](N)Cc1c[nH]cn1)[C@@H](C)O)[C@@H](C)O)C(C)C)C(=O)N[C@@H](CC(N)=O)C(=O)N[C@H](C(=O)N[C@@H](CCCCN)C(N)=O)[C@@H](C)O` [Example 23, N^α-(N^ε24 [2-[2-[2-[[(4S)-5-hydroxy-4-[(18-hydroxy-18-oxo-octadecanoyl)amino]-5-oxo-pentanoyl]amino]ethoxy]ethoxy]acetyl] [D-Ser^e, Lys^20] Glucagonyl) Lysinyl amide]: the concentration giving a half-maximal response (EC50) amounted to 0.54 nM.

`CSCC[C@H](NC(=O)[C@H](CC(C)C)NC(=O)[C@H](Cc1c[nH]c2ccccc12)NC(=O)[C@H](CCC(N)=O)NC(=O)[C@@H](NC(=O)[C@H](Cc1ccccc1)NC(=O)[C@H](CC(=O)O)NC(=O)[C@H](CCCNC(=N)N)NC(=O)[C@H](C)NC(=O)[C@H](CCCNC(=N)N)NC(=O)[C@H](CCC(N)=O)NC(=O)[C@H](CCC(=O)O)NC(=O)[C@H](CC(=O)O)NC(=O)[C@H](CC(C)C)NC(=O)[C@H](Cc1ccc(O)cc1)NC(=O)[C@H](CCCCN)NC(=O)[C@H](CO)NC(=O)[C@H](Cc1ccc(O)cc1)NC(=O)[C@H](CC(=O)O)NC(=O)[C@H](CO)NC(=O)[C@@H](NC(=O)[C@H](Cc1ccccc1)NC(=O)[C@@H](NC(=O)CNC(=O)[C@H](CCC(N)=O)NC(=O)[C@H](CO)NC(=O)[C@@H](N)Cc1c[nH]cn1)[C@@H](C)O)[C@@H](C)O)C(C)C)C(=O)N[C@@H](CC(N)=O)C(=O)N[C@H](C(=O)N[C@@H](CCCCNC(=O)COCCOCCNC(=O)COCCOCCNC(=O)CC[C@H](NC(=O)CCCCCCCCCCCCCCCCC(=O)O)C(=O)O)C(N)=O)[C@@H](C)O` [Example 26, N^α ([Glu^16,Gln^17,Arg^20] Glucagonyl) N^ε-([2-[2-[2-[[2-[2-[2-[[(4S)-5-hydroxy-4-[(18-hydroxy-18-oxooctadecanoyl)amino]-5-oxopentanoyl]amino]ethoxy]ethoxy]acetyl]amino]ethoxy]ethoxy]acetyl]) Lysinyl amide] (H-HSQGTFTSDYSKYLDEQRARDFVQWLMNTK([AEEA-AEEA-γGlu-C18 diacid])-NH2; N-terminus assumed) showed an EC50 of 0.192 nM. For the compound `CSCC[C@H](NC(=O)[C@H](CC(C)C)NC(=O)[C@H](Cc1c[nH]c2ccccc12)NC(=O)[C@H](CCC(N)=O)NC(=O)[C@@H](NC(=O)[C@H](Cc1ccccc1)NC(=O)[C@H](CC(=O)O)NC(=O)[C@H](CCCNC(=N)N)NC(=O)[C@H](C)NC(=O)[C@H](C)NC(=O)[C@H](CCC(N)=O)NC(=O)[C@H](CCC(=O)O)NC(=O)[C@H](CC(=O)O)NC(=O)[C@H](CC(C)C)NC(=O)[C@H](Cc1ccc(O)cc1)NC(=O)[C@H](CCCCN)NC(=O)[C@H](CO)NC(=O)[C@H](Cc1ccc(O)cc1)NC(=O)[C@H](CC(=O)O)NC(=O)[C@H](CO)NC(=O)[C@@H](NC(=O)[C@H](Cc1ccccc1)NC(=O)[C@@H](NC(=O)CNC(=O)[C@H](CCC(N)=O)NC(=O)[C@H](CO)NC(=O)[C@@H](N)Cc1c[nH]cn1)[C@@H](C)O)[C@@H](C)O)C(C)C)C(=O)N[C@@H](CC(N)=O)C(=O)N[C@H](C(=O)N[C@@H](CCCCNC(=O)COCCOCCNC(=O)COCCOCCNC(=O)CC[C@H](NC(=O)CCCCCCCCCCCCCCCCC(=O)O)C(=O)O)C(N)=O)[C@@H](C)O` [Example 27, N^α ([Glu^16,Gln^17,Ala^18,Arg^20]Glucagonyl) N^ε-([2-[2-[2-[[2-[2-[2-[[(4S)-5-hydroxy-4-[(18-hydroxy-18-oxooctadecanoyl)amino]-5-oxopentanoyl]amino]ethoxy]ethoxy]acetyl]amino]ethoxy]ethoxy]acetyl]) Lysinyl amide] (H-HSQGTFTSDYSKYLDEQAARDFVQWLMNTK([AEEA-AEEA-γGlu-C18 diacid])-NH2; N-terminus assumed), the response was half-maximal at 0.406 nM (EC50).
